In patent US12617794B2, “GABAA positive allosteric modulator compounds, methods of making, and uses thereof” (NEUROCYCLE THERAPEUTICS, INC., priority 2019, dated 2026):

How the values were obtained:
Assay type in all cases: physicochemical
[1] = Liquid vapor diffusion (Example 61); settings: RT, 6 days
Source text: After filtration, the filtrate in a small vial was put into a bigger vial containing anti-solvent. The bigger vial was left at RT for days. If precipitation occurred, solid was collected and characterized.
After filtration, the filtrate was transferred into a small vial, which was then placed inside a bigger vial which contained anti-solvent. The bigger vial was left at RT for 6 days. If precipitation occurred, solid was collected and characterized. No new phosphate form was obtained.

[2] = Slurry and stability study of phosphate (30.4, Example 35); settings: IPAC, EA
Source text: The suspensions were filtered and characterized by XRPD.

[3] = Slow cooling crystallization (Example 64); settings: slow cooling to RT
Source text: The suspensions were filtered to obtain saturated solution, and it was kept in an oil bath to cool to RT. The solids obtained were characterized.
The suspensions were filtered to obtain a saturated solution, and it was kept in an oil bath which was allowed to cool to RT naturally. Any solids obtained were characterized. […] No new phosphate Form was obtained.

[4] = Competitive slurry study
Source text: Determining which polymorphic form is more thermodynamically stable may be experimentally determined by conventional methods known in the art. For example, a competitive slurry experiment in which a 1:1 mixture of polymorphic forms is stirred for a period of time in a solvent in which both polymorphic forms are partly soluble may be conducted. It is accepted by those skilled in the art that if the 1:1 mixture converts entirely to one polymorphic form, that form that results is more thermodynamically stable of the two, while the other form is metastable.
TPA023B Phosphate of mixed forms was added into specific solvents and stirred at RT or 50° C. for 1 day. The suspensions were filtered and characterized by XRPD.

[5] = Intrinsic dissolution rate in SGF (Example 16); settings: 37° C., 100 rpm, linear scope within 2 to 120 min
Experimental: About 100 mg of Free Base Polymorphic Form A or Phosphate Polymorphic Form A was weighed into the intrinsic dissolution apparatus and the sample compressed for 1 minute with a compression force of ˜4 MPa to form a compacted pellet within the stainless-steel die. All loose powder was removed from the surface of the die. The intrinsic dissolution shaft was connected with the stainless-steel die and tightened so only one surface of the pellet was exposed (surface area=0.496 cm^2). The shaft in the spindle was adjusted to ensure the exposed surface of the compacted tablet was ˜3.8 cm from the bottom of the vessel when lowered. The temperature of chamber water was set at 37° C.±0.5° C., the shaft rotation at 100 rpm and the sampling time points at 2, 5, 10, 15, 30, 45, 60, 120 min. SGF was used as dissolution medium (900 mL). At each time point, solution samples were filtered, and the supernatant was analyzed by HPLC-UV.

[6] = DVS of TPA023B Phosphate Form A (Example 33); settings: for hygroscopicity: DVS; for crystal form after DVS test: XRPD

Result (solid form obtained) ([1]; solvent 2-methyl tetrahydrofuran, anti-solvent Chloroform): Phosphate Form A | Result (solid form obtained) ([1]; solvent 2-methyl tetrahydrofuran, anti-solvent Methyl cyclohexane): Phosphate Form A | Result (solid form obtained) ([1]; solvent 2-methyl tetrahydrofuran, anti-solvent xylene): Phosphate Form A | Result (solid form obtained) ([1]; solvent DMAC, anti-solvent DCM): No solid | Result (solid form obtained) ([1]; solvent DMAC, anti-solvent EA): No solid | Result (solid form obtained) ([1]; solvent DMAC, anti-solvent Isopropyl ether): No solid | Result (solid form obtained) ([1]; solvent Diox, anti-solvent ACN): No solid | Result (solid form obtained) ([1]; solvent Diox, anti-solvent BAC): Phosphate Form A | Result (solid form obtained) ([1]; solvent Diox, anti-solvent DCM): Phosphate Form A | Result (solid form obtained) ([1]; solvent Diox, anti-solvent Heptane): Phosphate Form A | Result (solid form obtained) ([1]; solvent Diox, anti-solvent Isopropyl ether): Phosphate Form A | Result (solid form obtained) ([1]; solvent MEK, anti-solvent Cyclohexanone): Phosphate Form A | Result (solid form obtained) ([1]; solvent MEK, anti-solvent DCM): Phosphate Form A | Result (solid form obtained) ([1]; solvent MEK, anti-solvent MAC): No solid | Result (solid form obtained) ([1]; solvent MEK, anti-solvent MTBE): No solid | Result (solid form obtained) ([1]; solvent MEK, anti-solvent Trichloromethane): Phosphate Form A | Result (solid form obtained) ([1]; solvent NMP, anti-solvent Chloroform): No solid | Result (solid form obtained) ([1]; solvent NMP, anti-solvent Isopropyl ether): No solid | Result (solid form obtained) ([1]; solvent NMP, anti-solvent MEK): No solid | Result (solid form obtained) ([1]; solvent THF, anti-solvent ACN): No solid | Result (solid form obtained) ([1]; solvent THF, anti-solvent EA): Phosphate Form A | Result (solid form obtained) ([1]; solvent THF, anti-solvent N-pentane): Phosphate Form A | Result (solid form obtained) ([1]; solvent THF, anti-solvent Toluene): Phosphate Form A | Result (solid form obtained) ([1]; solvent THF, anti-solvent Trichloromethane): No solid | crystal form after slurry (XRPD) ([2]; 100 mg slurried in 2 mL THF, 2-Me THF, acetone and ACN at RT): remains unchanged | stability in solvents ([2]; THF, 2-Me-THF, Acetone, MTBE or ACN): stable | Result (solid form obtained) ([3]; solvent 2-butanone): Phosphate Form A | Result (solid form obtained) ([3]; solvent 2-methyl tetrahydrofuran): No solid | Result (solid form obtained) ([3]; solvent ACN): Phosphate Form A | Result (solid form obtained) ([3]; solvent Anisole): No solid | Result (solid form obtained) ([3]; solvent BAC): Phosphate Form A | Result (solid form obtained) ([3]; solvent Butanol): Free Base Form E | Result (solid form obtained) ([3]; solvent EA): No solid | Result (solid form obtained) ([3]; solvent Isoamyl alcohol): Free Base Form E | Result (solid form obtained) ([3]; solvent MAC): No solid | Result (solid form obtained) ([3]; solvent THF): No solid | thermodynamic stability among phosphate forms [4]: most thermodynamically stable form | intrinsic dissolution rate [5]: 0.184 mg·cm^−2min^−1 | hygroscopicity ([6]; listed as Phosphate Form A): slightly hygroscopic | hygroscopicity ([6]; listed as phosphate Form A): slight hygroscopicity | crystal form after DVS test ([6]; listed as Phosphate Form A): remained unchanged | crystal form after DVS test ([6]; listed as phosphate Form A): no change | water absorbed (DVS) ([6]; from 0 to 80% RH): 0.68%
SMILES: CC(C)(O)c1cnn2c(-c3ccc(F)c(-c4c(F)cccc4C#N)c3)cnc2n1 [Phosphate Polymorphic Form A, 2′,6-difluoro-5′-[3-(1-hydroxy-1-methylethyl)-imidazo[1,2-b][1,2,4]triazin-7-yl]biphenyl-2-carbonitrile]
